From patent US11389536B2 (priority 2015, dated 2022)
Read-outs that look alike come from different tables or passages of the source.

Experiments:
[1] = system: lungs of athymic nude mice; test: Lung histology for radiation-induced pneumonitis and fibrosis (H&E, Masson's trichrome); assay type: in vivo; conditions: irradiated lungs
Description: For the in vivo studies, athymic nude mice are housed in the specific pathogen-free (SPF) Cancer Research Institute animal facility which exceeds the national requirements for animal care, with two conventional mouse rooms, two nude mouse rooms, and one quarantine room. Radiation was administered using an IC160 X-ray cell culture and small animal irradiation system (Kimtron Inc., Woodbury, Conn., USA) located inside the animal facility. Nine weeks post radiation, the mice were sacrificed and the lungs were harvested and processed for hematoxylin and eosin (H&E) staining. For immunohistochemistry and hematoxylin and eosin-staining procedures, one part of the tumor tissue is formalin-fixed and paraffin-embedded and another part embedded in OCT compound (Miles, Inc., Elkhart, Ind.), rapidly frozen in liquid nitrogen, and stored at […] for sectioning. Immunofluorescence microscopy is performed using a 20× objective on an epifluorescence microscope equipped with narrow bandpass excitation filters mounted in a filter wheel (Ludl Electronic Products, Hawthorne, N.Y.).
To determine the degree of radiation-induced pneumonitis, the lungs were harvested and processed for histology and H&E staining (FIGS. 23A-23D) and the amount of fibrosis and collagen deposition, indicative of chronic lung conditions, was measured using Masson's trichrome stain (FIGS. 23E-23H).

[2] = system: non-tumor-bearing athymic nude mice
Description: Non-tumor-bearing athymic nude mice were exposed to fractionated doses of 30 Gy radiation (weekly administration of 5 Gy) in the presence or absence of twice weekly intravenous (i.v.) injections of Ce02 or intraperitoneal (i.p.) injections of Amifostine 30 min prior to radiation. Amifostine is a free radical scavenger. […] Treatments continued for […] for a total dose of 30 Gy radiation. The mice were killed and necropsied only when they became moribund or the experiment was terminated. The weight and mortality of each mouse was measured throughout the experiment and median and percent survival was determined, as shown in FIG. 22E.

NCCCNCCSP(=O)(O)O [Amifostine]
fibrosis and collagen deposition (Masson's Trichrome stain) [1]: fibrosis and collagen deposition were common | median survival time ([2]; agent alone, no radiation (Amifostine 150 mg/kg i.p.)): 119 days | tolerability / toxicity to mice ([2]; athymic nude mice): highly toxic to the mice | median survival time ([2]; combination with radiation (5 Gy fractions, total 30 Gy), CONPs 15 nM i.v. twice weekly, Amifostine i.p. 30 min prior to radiation): 81 days
